{"source": "patent US20240100112A1", "about": "“TRADITIONAL CHINESE MEDICINE OINTMENT FOR PREVENTING AND TREATING MASTITIS IN DAIRY COWS, AND PREPARATION METHOD THEREOF” (Hunan University of Science and Engineering, priority 2022, published 2024)", "tested_on": "mastitis in dairy cows", "assay": "Treatment of dairy cows with mastitis; cure judged by sodium hydroxide curdled milk test", "assay_type": "in vivo", "conditions": "dairy cows with mastitis (SMT detected); ointment 2 g externally twice a day for 5 days, or penicillin 100,000 IU breast perfusion; tested one day after stopping", "from_the_text": "Fifty dairy cows with mastitis detected by Shanghai Mastitis Test (SMT) are selected from a dairy farm in Hunan Province, of which 20 cows are externally coated with the traditional Chinese medicine ointment for preventing and treating mastitis in dairy cows prepared in embodiment 1 and 20 cows are externally applied with the traditional Chinese medicine ointment for preventing and treating mastitis in dairy cows prepared in comparative example 1, with the dosage of 2 g each time, twice a day for 5 days. The remaining 10 cows are perfused with penicillin 100,000 IU after all the milk is discharged from their breasts, as a control group.\nCure standard: one day after stopping the ointments, if curdled milk is negative by the sodium hydroxide test, the cows are judged to be cured."}
{"smiles": "CC1(C)S[C@@H]2[C@H](NC(=O)Cc3ccccc3)C(=O)N2[C@H]1C(=O)O", "note": "[Control group, penicillin]", "values": [{"measurement": "Cows (head) with curdled milk being negative by sodium hydroxide test", "result": 8, "unit": "head"}, {"measurement": "Cure rate (%)", "result": 80, "unit": "%"}]}
